# Measured values: patent US20140057976A1, “USNIC ACID TOPICAL FORMULATION” (EVOCUTIS PLC, priority 2011, published 2014)
# Marks after values point to notes of the source that are not given here.
# Assays:
# [1] = test system: Propionibacterium acnes NCTC 737; assay: Minimum inhibitory concentration (MIC) assay; type: cell-based; conditions: P. acnes NCTC 737
# Procedure: (§1) The test organism used was Propionibacterium acnes NCTC 737. This is a propionibacterial strain and is the type strain of the […]; it is fully susceptible to antibiotics. The propionibacteria are clinically significant due to their involvement in acne. They are also opportunistic pathogens in compromised hosts. Activity observed against these micro-organisms is expected to be a good predictor of activity against acne.
# (§2) The propionibacteria were cultured and maintained on Wilkins-Chalgren Anaerobe Medium (agar and broth) at pH 6.0; all cultures were incubated anaerobically at 37° C. for 72 hours.
# This is a standard international method for quantitatively assessing the antimicrobial activity of a compound/formulation in a liquid medium. The method used a sterile 96-well microtitre plate, capable of holding about 200 μl of liquid per well. The wells contained liquid culture medium and ranges of decreasing concentrations of the relevant test compound/formulation (in this case reported as the relative concentration of the active molecule—copper usnate—in the formulations) in doubling dilutions (eg 1000, 500, 250, 125 . . . μg/ml, etc, down to 0.49 μg/ml). The culture media were as described above.
# The wells were inoculated with a liquid suspension of freshly grown micro-organism and incubated under the conditions described above. After incubation, the microtitre plate was examined visually for cloudiness in each well, which would indicate microbial growth. The MIC value was recorded as the lowest concentration of test compound/formulation required to inhibit microbial growth, ie the lowest concentration for which the liquid in the well remained clear.
# The assays included both negative (culture medium with no micro-organisms) and positive (culture medium plus diluting solvent plus micro-organism) controls.
# [2] = test system: Propionibacterium acnes NCTC 737; assay: Minimum biocidal concentration (MBC) assay; type: cell-based; conditions: P. acnes NCTC 737
# Procedure: as §1, §2
# This assay, normally carried out after an MIC assay, determines the minimum concentration of a compound or formulation that is lethal to the test micro-organism.
# These samples were then individually sub-cultured on antibiotic-free agar medium, under the incubation conditions described above. Following incubation they were examined visually for microbial growth.
# The ratio of MIC to MBC should ideally be as close to 1 as possible. This facilitates selection of the lowest possible effective concentration of a test compound or formulation, with a reduced risk of selecting a sub-lethal concentration which could promote resistance or allow the target microbial population to recover.
# S. aureus ATCC 29213 [3] = assay: MIC against S. aureus; type: cell-based
# S. aureus ATCC 29213 [4] = assay: MBC against S. aureus; type: cell-based
# [5] = test system: Corynebacterium striatum NCTC 764; assay: MIC against Corynebacterium striatum; type: cell-based
# [6] = test system: Corynebacterium striatum NCTC 764; assay: MBC against Corynebacterium striatum; type: cell-based
# P. acnes NCTC 737 = assay: Synthetic sebum time-to-kill assay; type: cell-based, Propionibacterium acnes; conditions: 49 μg/mL Cu usnate (equivalent)
# Procedure: This quantitative assay was designed to assess the level of kill of a P. acnes culture in a synthetic sebum (non-aqueous environment) over a defined time period, in this case 4 hours. A culture of P. acnes NCTC 737 was inoculated into a synthetic sebum (a liquid mixture of lipid components designed to simulate human sebum) containing the relevant test compound or formulation diluted in 1-octanol. From this culture, samples were taken after 4 hours, 10-fold serially diluted in wash fluid (0.075 M sodium phosphate buffer, pH 7.9, 0.1% v/v Triton™-X 100) and inoculated onto agar plates (in triplicate). The plates were then incubated as described above and subsequently examined visually for growth. The numbers of viable microbial colonies on the plates were counted with the aid of a colony counter and converted to colony-forming units per ml (cfu/ml) using the appropriate dilution factor. Cell counts conducted in the absence of formulations (but still in the presence of 1-octanol) acted as positive controls. All experiments were conducted in triplicate.
compound,measurement,setting,value
"CC(=O)c1c([O-])c(C)c([O-])c2c1OC1=CC(=O)C(C(C)=O)C(=O)C12C.[Cu+2] (stereo not drawn) [Copper usnate, copper (II) di-usnate]",MIC:MBC ratio,[1]; Example 13,0.25
same,MIC,"[1]; Example 13, formulations as Cu usnate equivalent, anaerobic 37° C. 72 hours",0.24 µg/mL
same,minimum inhibitory concentration (MIC),[1]; found by the present inventors,0.49 µg/mL
same,MBC,"[2]; Example 13, formulations as Cu usnate equivalent",0.98 µg/mL
same,minimum biocidal concentration (MBC),[2]; found by the present inventors,3.9 µg/mL
same,MIC,S. aureus ATCC 29213 [3],7.8 µg/mL
same,MBC,S. aureus ATCC 29213 [4],62.5 µg/mL
same,MIC,[5],3.9 µg/mL
same,MBC,[6],62.5 µg/mL
same,Log10 cfu/ml (T0 hours),P. acnes NCTC 737; T0 hours,7.97 Log10 cfu/ml
same,Log10 change,P. acnes NCTC 737; T0 to T4 hours,−4.97 Log10
same,Log10 cfu/ml (T4 hours),"P. acnes NCTC 737; T4 hours, lowest detectable level = 3.0 Log10 cfu/ml",≤ 3.0* Log10 cfu/ml
